Data taken from patent publication US11571412B2, “Thromboxane receptor antagonists in AERD/asthma” (Cumberland Pharmaceuticals Inc., priority 2015, dated 2023).
Entries after “also recorded” stand apart in the source; their conditions may differ. Where two headings read alike, the source gives them in different places.

Key:
[1] = system: TP receptor-induced bronchospasm; conditions: rats; cited from earlier work
guinea pig trachea = conditions: in vitro; cited from earlier work
[2] = system: TP receptor-induced bronchospasm; conditions: guinea pigs; cited from earlier work
[3] = system: patients with a history of aspirin exacerbated respiratory disease (AERD); assay: Multicenter, double-blind, randomized, placebo-controlled trial of oral ifetroban with aspirin challenge/desensitization (AERD Phase 2a); format: in vivo, human; conditions: for Incidence of an AIR by Aspirin Dose: AIR population n = 10; for NIFR ≥25% decrease / NIFR ≥25% increase / TNSS ≥25% decrease / TNSS ≥25% increase: ifetroban 200 mg/day oral; for Rescue Medications Mean (SD): to resolve an AIR
Description: Example IV is a multicenter, double-blind, randomized, placebo-controlled trial to determine the safety of oral ifetroban in patients with a history of aspirin exacerbated respiratory disease (AERD).
The eligible subjects were randomized (3:1 active to placebo) in this 7-day study which consisted of a screening, treatment and follow-up period. Any subject receiving at least a partial dose of IMP were not replaced and included in the study analysis. Of 19 subjects enrolled and randomized to study treatment, 14 (74%) were randomized to the ifetroban group and 5 (26%) to the placebo group. Of those 14 randomized to ifetroban, 12 (86%) subjects were treated and 100% of those treated completed treatment. Of 5 subjects randomized to placebo, 4 (80%) started treatment and 100% completed treatment. All treated subjects were analyzed for safety and efficacy variables.
All individuals with AERD will experience a clinical reaction to aspirin, most often at a dose of 81 mg or below. By utilizing a modified Scripps Institute protocol (Hope, Woessner, Simon, & Stevenson, 2009), limiting the study to individuals with stable asthma and no history of life-threatening reaction to COX inhibitors and administering the cysteinyl leukotriene receptor 1 (Cys-LT1) antagonist montelukast to all individuals undergoing the challenge/desensitization, the procedure could safely be done in an ambulatory/outpatient clinic setting. […] Thus, montelukast substantially increases the safety of aspirin challenge/desensitization and it is the standard of care to use montelukast as a pre-treatment for subjects with AERD undergoing a planned aspirin challenge/desensitization.
The primary objective of this study was to determine the safety of oral ifetroban compared to placebo as measured by a ≥20% decrease in Forced Expiratory Volume in 1 second (FEV1) compared to baseline following a dose of Investigational Medicinal Product (IMP) (Study Day 1) or following a dose of IMP but prior to initiation of the aspirin challenge. Secondary objectives were: (i) to determine the safety of oral ifetroban compared to placebo as measured by peak Nasal Inspiratory Flow Rate (NIFR) compared to baseline following a dose of IMP (Study Day 1) or following a dose of IMP but prior to initiation of the aspirin challenge; (ii) to determine the safety of oral ifetroban compared to placebo as measured by the change in Total Nasal Symptom Score (TNSS) compared to baseline following a dose of IMP (Study Day 1) or following a dose of IMP but prior to initiation of the aspirin challenge; (iii) to determine the safety and tolerability of oral ifetroban compared to placebo as measured by treatment-emergent adverse events; (iv) to determine the efficacy of oral ifetroban compared to placebo in decreasing the respiratory reaction to oral aspirin as measured by the change in FEV1 compared to baseline during the aspirin challenge; (v) to determine the efficacy of oral ifetroban compared to placebo in decreasing the respiratory reaction to oral aspirin as measured by the change in NIFR compared to baseline during the aspirin challenge; (vi) to determine the efficacy of oral ifetroban compared to placebo in decreasing the respiratory reaction to oral aspirin as measured by the change in TNSS compared to baseline during the aspirin challenge; (vii) to determine the efficacy of oral ifetroban compared to placebo in decreasing the respiratory reaction to oral aspirin as measured by the amount of rescue medication during the aspirin challenge; (viii) to determine the efficacy of oral ifetroban compared to placebo in decreasing respiratory sensitivity to COX-1 inhibition as measured by the aspirin desensitization dose level; and (ix) to determine the efficacy of oral ifetroban compared to placebo as measured by the number of asthmatic reactions during the Treatment Period. […]

CYP3A4 = CYP3A4 (Homo sapiens, UniProt P08684); conditions: cited from earlier work
CYP3A4, sequence (P08684 whole entry): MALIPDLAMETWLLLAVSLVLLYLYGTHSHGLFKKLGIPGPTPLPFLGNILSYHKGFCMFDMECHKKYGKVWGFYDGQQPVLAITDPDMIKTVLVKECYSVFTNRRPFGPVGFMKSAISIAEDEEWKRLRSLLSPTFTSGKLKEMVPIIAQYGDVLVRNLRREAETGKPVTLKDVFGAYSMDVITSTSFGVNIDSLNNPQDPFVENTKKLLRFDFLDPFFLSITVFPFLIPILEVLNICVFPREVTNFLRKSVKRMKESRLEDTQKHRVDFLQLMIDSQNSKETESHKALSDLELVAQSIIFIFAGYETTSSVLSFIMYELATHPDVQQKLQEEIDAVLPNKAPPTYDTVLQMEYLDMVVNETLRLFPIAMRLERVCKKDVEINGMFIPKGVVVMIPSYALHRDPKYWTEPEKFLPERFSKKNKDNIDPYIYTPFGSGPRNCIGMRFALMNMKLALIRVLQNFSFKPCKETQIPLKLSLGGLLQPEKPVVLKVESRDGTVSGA

CYP2C9 = CYP2C9 (Homo sapiens, UniProt P11712); conditions: cited from earlier work
CYP2C9, sequence (P11712 whole entry): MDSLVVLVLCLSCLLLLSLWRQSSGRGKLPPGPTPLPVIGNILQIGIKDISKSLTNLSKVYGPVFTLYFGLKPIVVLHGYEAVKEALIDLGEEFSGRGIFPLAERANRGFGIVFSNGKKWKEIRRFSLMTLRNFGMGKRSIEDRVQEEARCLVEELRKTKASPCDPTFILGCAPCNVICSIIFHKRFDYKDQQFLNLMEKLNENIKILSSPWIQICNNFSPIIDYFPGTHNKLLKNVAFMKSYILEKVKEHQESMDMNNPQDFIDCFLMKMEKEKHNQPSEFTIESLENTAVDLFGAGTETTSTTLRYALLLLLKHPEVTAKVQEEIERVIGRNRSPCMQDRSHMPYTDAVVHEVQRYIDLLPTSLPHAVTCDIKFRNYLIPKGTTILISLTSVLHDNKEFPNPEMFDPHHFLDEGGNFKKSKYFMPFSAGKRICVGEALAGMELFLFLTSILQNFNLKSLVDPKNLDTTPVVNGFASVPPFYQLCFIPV

Df-treated ptges−/− mice = conditions: cited from earlier work; for Reaction to aspirin (peak change in RL in response to Lys-ASA challenge): two doses of antagonist prior to challenge with Lys-ASA
[4] = Phase A, n = 12, listed as ifetroban
[5] = Phase B (aspirin challenge), n = 12
[6] = aspirin desensitization, n = 12
[7] = column headed Phase C (overall, during the study), n = 12
[8] = subjects that experienced an AIR
[9] = subjects that experienced an AIR, listed as ifetroban

CCCCCNC(=O)c1coc([C@H]2[C@@H](Cc3ccccc3CCC(=O)O)[C@@H]3CC[C@H]2O3)n1 [Ifetroban, [1S-(1α,2α,3α,4α)]-2-[[3-[4-[(Pentylamino)carbonyl]-2-oxazolyl]-7-oxabicyclo[2.2.1]hept-2-yl]methyl]-benzenepropanoic acid]
TP receptor-induced bronchospasm [1]: both preempt and reverse | Contraction of guinea pig trachea elicited by PGD2 (guinea pig trachea): inhibit contraction | TP receptor-induced bronchospasm [2]: both preempt and reverse | Difference in mean rescue medications, placebo versus ifetroban ([3]; 7.33 (placebo) versus 2.90 (ifetroban) to resolve an AIR): 2.5 fold | Severity of an AIR: All Symptoms (total number) ([3]; AIR subjects n = 10): 43 | Incidence of an AIR by Aspirin Dose ([3]; Aspirin Dose 30 mg): 0 No. of Subjects (%) | Incidence of an AIR by Aspirin Dose ([3]; Aspirin Dose 60 mg): 5 (50) No. of Subjects (%) | Incidence of an AIR by Aspirin Dose ([3]; Aspirin Dose 100 mg): 5 (50) No. of Subjects (%) | Incidence of an AIR by Aspirin Dose ([3]; Aspirin Dose 150 mg): 0 No. of Subjects (%) | Incidence of an AIR by Aspirin Dose ([3]; Aspirin Dose 325 mg): 0 No. of Subjects (%) | NIFR ≥25% decrease ([3]; Phase A, n = 12): 2(17) No. of Subjects (%) | NIFR ≥25% increase ([3]; Phase A, n = 12): 3(25) No. of Subjects (%) | TNSS ≥25% decrease ([3]; Phase A, n = 12): 1(8) No. of Subjects (%) | TNSS ≥25% increase ([3]; Phase A, n = 12): 0 No. of Subjects (%) | TNSS ≥25% decrease [3, 4]: 1 (8%) No. of Subjects (%) | TNSS ≥25% increase [3, 4]: No subject | NIFR ≥25% decrease [3, 5]: 4(33) No. of Subjects (%) | NIFR ≥25% increase [3, 5]: 7(58) No. of Subjects (%) | TNSS ≥25% decrease [3, 5]: 2(17) No. of Subjects (%) | TNSS ≥25% increase [3, 5]: 3(25) No. of Subjects (%) | TNSS ≥25% decrease ([3]; Phase B (aspirin challenge), n = 12, listed as ifetroban): 2 (17%) No. of Subjects (%) | Average number of symptoms per AIR compared to placebo ([3]; aspirin challenge): comparable between treatment groups | Bronchial reaction (<20% decrease in FEV1, wheezing, chest tightness) as part of the AIR compared to placebo ([3]; aspirin challenge): at a similar rate | Ocular manifestation compared to placebo ([3]; aspirin challenge): seems to trend toward the placebo arm more often than on the ifetroban arm | Upper respiratory effect (rhinorrhea, nasal obstruction, sneezing) compared to placebo ([3]; aspirin challenge): equally as common between treatment groups | Number of rescue medications compared to placebo (trend) ([3]; aspirin challenge (phase B)): apparent trend toward fewer rescue medications in favor of the ifetroban group | Total Number of Rescue Medications ([3]; aspirin challenge (phase B)): 29 | Aspirin-induced Reaction (AIR): No [3, 6]: 2 (17) No. of Subjects (%) | Aspirin-induced Reaction (AIR): Yes [3, 6]: 10 (83) No. of Subjects (%) | Proportion of subjects with worsening NIFR or TNSS compared to placebo ([3]; between treatment groups): no clear trends were observed; also recorded: no appreciable difference was observed | NIFR ≥25% decrease [3, 7]: 5(42) No. of Subjects (%) | NIFR ≥25% increase [3, 7]: 9(75) No. of Subjects (%) | TNSS ≥25% decrease [3, 7]: 2(17) No. of Subjects (%) | TNSS ≥25% increase [3, 7]: 3(25) No. of Subjects (%) | NIFR ≥25% increase ([3]; column headed Phase C (overall, during the study), n = 12, listed as ifetroban): 9 (75%) No. of Subjects (%) | ≥20% decrease in FEV1 (primary endpoint) ([3]; during IMP treatment or the aspirin desensitization process, 200 mg/day): did not cause a ≥20% decrease in FEV1 | Subjects with ≥25% decrease in peak NIFR during both phase A and phase B ([3]; during both phase A and phase B): One | Improvements to NIFR and TNSS compared to placebo ([3]; during phase A and phase B): observed trend in favor of the ifetroban group toward greater improvements | Subjects with ≥50% or 75% increase or decrease in TNSS ([3]; during the study): No one | AEs reported compared to placebo ([3]; ifetroban at 200 mg/day): no increase in AEs | Safety and tolerability ([3]; ifetroban at 200 mg/day, subjects with a history of AERD): well tolerated and safe | Symptoms of aspirin desensitization in AERD patients ([3]; ifetroban at a dose of 200 mg/day): may be diminished | Severity of an AIR: <20% decrease in FEVI (number) ([3]; n = 10): 9 | Severity of an AIR: <20% decrease in FEVI Mean ([3]; n = 10): 0.9 | Severity of an AIR: All Symptoms Median ([3]; n = 10): 4 | Severity of an AIR: All Symptoms Min, Max ([3]; n = 10): 3.7 | Severity of an AIR: Lower Respiratory (number of symptoms) ([3]; n = 10): 13 | Severity of an AIR: Lower Respiratory Mean ([3]; n = 10): 1.3 | Severity of an AIR: Ocular (number of symptoms) ([3]; n = 10): 5 | Severity of an AIR: Ocular Mean ([3]; n = 10): 0.5 | Severity of an AIR: Upper Respiratory (number of symptoms) ([3]; n = 10): 25 | Severity of an AIR: Upper Respiratory Mean ([3]; n = 10): 2.5 | Severity of an AIR: All Symptoms Mean(SD) ([3]; per AIR, n = 10): 4.3(1.34) | Asthmatic reactions reported or rescue medications used ([3]; phase A prior to aspirin initiation): No asthmatic reactions were reported or rescue medications used | Initial reactions occurring at the 60-mg aspirin dose ([3]; provoking aspirin dose 60 mg): 50% | Required Rescue Medication: No [3, 8]: 1 (10) No. of Subjects (%) | Required Rescue Medication: Yes [3, 8]: 9 (90) No. of Subjects (%) | Rescue Medications Max [3, 8]: 7 | Rescue Medications Median [3, 8]: 3 | Rescue Medications Min [3, 8]: 0 | Required Rescue Medication: No [3, 9]: 1 (10%) No. of Subjects (%) | Rescue medication outside the clinic for an asthmatic reaction ([3]; throughout the 7-day study period): no subject required rescue medication outside the clinic | Mean changes from baseline FEV1 ([3]; throughout the treatment period): below 20% | Rescue Medications Mean (SD) [3, 8]: 2.90 (2.02) | Rescue Medications Mean (SD) [3, 9]: 2.90

CC(C)(O)c1ccccc1CC[C@@H](SCC1(CC(=O)O)CC1)c1cccc(/C=C/c2ccc3ccc(Cl)cc3n2)c1 [montelukast]
Inhibition of CYP3A4 (CYP3A4): does not inhibit | Inhibition of CYP2C9 (CYP2C9): does not inhibit

CC(c1ccccc1)C(O)/C=C/C1C2CCC(O2)C1C/C=C\CCCC(=O)O (stereo not drawn) [[1S-(1α, 2α(Z), 3α(1E, 3S*, 4R*), 4α)]]-7-[3-(3-hydroxy-4-phenyl-1-pentenyl)-7-oxabicyclo[2.2.1]hept-2-yl]-5-heptenoic acid]
Rise in cys-LTs (BAL fluid) (Df-treated ptges−/− mice; ptges−/− mice, Lys-ASA challenge): completely blocked | Reaction to aspirin (peak change in RL in response to Lys-ASA challenge) (Df-treated ptges−/− mice; ptges−/− mice): completely blocked | Reaction to aspirin (peak change in RL in response to Lys-ASA challenge) (Df-treated ptges−/− mice; ptges−/− mice, listed as SQ29.548): attenuates aspirin sensitivity

CC(c1cc2ccccc2s1)N(O)C(N)=O (centres unmarked) [zileuton]
Increase in airway resistance on inhalation of Lysine aspirin (Df-treated ptges−/− mice; Df-treated ptges−/− mice): sensitive to interference
